Literature values in patent publication US8410096B2, “Antitumor agent, kit and method of treating cancer” (Shizuoka Prefecture, priority 2008, dated 2013).

System: 5-FU decomposition
Conditions: compared with uracil

Question: For Oc1cc(O)c(Cl)cn1 [gimeracil, 2,4-dihydroxy-5-chloropyridine], which “5-FU decomposition inhibitory action relative to uracil” value is on record?
Answer: Its value is “about 200 times”.
